This is an account of results in patent US20080220449A1, “Biomarkers and assays for Alzheimer's disease” (OLIGOMERIX, INC., priority 2007, published 2008).

For assay [1], the target named is T1, tau oligomers containing tau without c-terminal truncation (Homo sapiens, UniProt P10636).
T1 construct: only tau oligomers containing tau without c-terminal truncation would be detected; from tissue; host or cells: cerebrospinal fluid of a severe AD patient (post mortem, New York Brain Bank)
Put plainly: ELISA with mAb T46 capture and pAb A11 reporter for curcumin effect on tau-oligomer levels in CSF. The assay is classed as biochemical. To be noted: same CSF sample from a patient having severe AD; sample preparation as in Example 11. On the procedure:
Tau oligomer levels based on oligomer conformation was determined using a standard sandwich ELISA where mAb HT7 against tau was used for capture, as mentioned in FIG. 2 (Example 1). After incubation with CSF samples (see FIG. 2 legend) the plates were washed and 100 uL rabbit pAb A11, specific for protein oligomer conformation, was diluted 1000-fold and added to each well. The plate was incubated for one hour at 37° C. and washed. Biotinylated goat anti-rabbit antibody was diluted 10,000-fold in PBST and 50 μL was added to each well. Plates were incubated for 30 min. at 37° C. Detection was done using HRP-neutravidin and QuantaBlu fluorogenic substrate as described for FIG. 2 (Example 1). The results are shown in FIG. 8 (4 severe AD, 5 AD and 3 non-AD CSF samples were tested). Here the assay is specific for tau in association with oligomer conformation and can detect soluble tau oligomers. The combination of a monoclonal antibody against tau with an antibody specific for oligomer conformation is novel. […]
Tau oligomer levels in CSF were determined using antibodies specific for oligomer conformation and tau with intact c-terminus. […]
(§1) Data analysis for Example 11 (FIG. 13) and Example 12 (FIG. 14) was measured as a percent decrease in tau-oligomers, upon incubation with curcumin. […]
(§2) FU=(Average fluorescence of triplicate wells for each sample-average fluorescence of the antibody blank wells). […]

For the next assay, the system named is soluble tau oligomer. Put plainly: Modified ELISA (mAb HT7 capture, biotinylated mAb HT7 reporter) for curcumin effect on tau-oligomer levels in CSF. The assay is classed as biochemical, human. How it is done:
FIG. 6 is a schematic diagram illustrating an exemplary method and assay that utilizes standard and modified ELISA to detect tau-monomer, tau pT217, soluble tau oligomer, and tau-amyloid-beta 1-42 complex. Formation of tau oligomers was analyzed using two different ELISA methods to provide verified data. The “modified” ELISA uses the same monoclonal antibody for capture and detection. Insoluble aggregates are removed in the ELISA procedure during washing steps. Only soluble aggregates of tau, not monomers, are detected with this ELISA because the detection and reporter antibody recognizes an epitope which is present only once within tau. […]
Modified ELISA to determine tau-oligomer levels in CSF: Tau oligomer level was determined using modified sandwich ELISA where mAb HT7 against tau was used for capture and biotinylated mAb HT7 as the reporter. […]
Sample preparation: A 5 mM stock solution of curcumin was prepared in 100% ethanol. […] The incubated samples were diluted to 500 μL in buffer and analyzed for tau-oligomers by modified ELISA as described in FIG. 6. […]
as §1, §2
On the technique in general: An ELISA detects its analyte on a solid surface through an enzyme-linked reagent.

Molecules are shown by their SMILES. “Also recorded” adds a separate entry of the source.

T1 sequence (P10636 1-441 isoform P10636-8): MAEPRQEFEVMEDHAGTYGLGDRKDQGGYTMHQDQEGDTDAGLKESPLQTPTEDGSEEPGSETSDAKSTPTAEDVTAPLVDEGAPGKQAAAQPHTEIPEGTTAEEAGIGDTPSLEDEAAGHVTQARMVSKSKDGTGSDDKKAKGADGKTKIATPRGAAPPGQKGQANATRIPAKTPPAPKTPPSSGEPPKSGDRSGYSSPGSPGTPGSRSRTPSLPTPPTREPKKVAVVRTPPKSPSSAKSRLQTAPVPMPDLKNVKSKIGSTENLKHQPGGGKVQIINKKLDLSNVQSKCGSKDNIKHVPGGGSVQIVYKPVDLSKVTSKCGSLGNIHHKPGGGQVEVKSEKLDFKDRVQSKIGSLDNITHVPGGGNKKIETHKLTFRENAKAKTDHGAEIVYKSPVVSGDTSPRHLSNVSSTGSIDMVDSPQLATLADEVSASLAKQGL

With `COc1cc(/C=C/C(=O)CC(=O)/C=C/c2ccc(O)c(OC)c2)ccc1O` [curcumin], in assay [1], the “percent decrease in tau-oligomers upon incubation with curcumin (FIG. 14, mAb T46 / pAb A11 format)” value was “reduction of tau oligomer levels”. The “percent decrease in tau-oligomers upon incubation with curcumin (FIG. 13)” value in the assay with soluble tau oligomer (CSF from three different severe AD patients, 5 uL of 20 uM curcumin in total volume of 100 uL, one hour at 37° C.) was “disruption of soluble tau oligomer; also recorded: reduction of tau oligomer levels”. In addition, in the assay on soluble tau oligomer (one CSF sample from a patient having severe AD, sample preparation as in Example 11), the “percent decrease in tau-oligomers upon incubation with curcumin (FIG. 14, modified ELISA format)” value is “reduction of tau oligomer levels”.
